PubChem BioAssay (NCI)
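Where inhibition never reached the appropriate level, the endpoint shown equals the highest concentration tested. Otherwise, values were interpolated linearly from a five-concentration, 48-hour dose response in 96-well plates. TGI: concentration producing complete growth inhibition.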

Assays:
Assay in all cases: NCI tumour cell line growth inhibition, 48 h
786-0 renal = test system: 786-0 renal
A549 NSCLC = test system: A549 NSCLC
ACHN renal = test system: ACHN renal
CAKI-1 renal = test system: CAKI-1 renal
CCRF-CEM leukemia = test system: CCRF-CEM leukemia
COLO 205 colon = test system: COLO 205 colon
DLD-1 colon = test system: DLD-1 colon
DMS 114 small cell lung = test system: DMS 114 small cell lung
DMS 273 small cell lung = test system: DMS 273 small cell lung
EKVX NSCLC = test system: EKVX NSCLC
HCC-2998 colon = test system: HCC-2998 colon
HCT-116 colon = test system: HCT-116 colon
HCT-15 colon = test system: HCT-15 colon
HL-60(TB) leukemia = test system: HL-60(TB) leukemia
HOP-18 NSCLC = test system: HOP-18 NSCLC
HOP-62 NSCLC = test system: HOP-62 NSCLC
HOP-92 NSCLC = test system: HOP-92 NSCLC
HT29 colon = test system: HT29 colon
IGROV1 ovarian = test system: IGROV1 ovarian
K-562 leukemia = test system: K-562 leukemia
KM12 colon = test system: KM12 colon
KM20L2 colon = test system: KM20L2 colon
LOX IMVI melanoma = test system: LOX IMVI melanoma
LXFL 529 NSCLC = test system: LXFL 529 NSCLC
M14 melanoma = test system: M14 melanoma
M19-MEL melanoma = test system: M19-MEL melanoma
MALME-3M melanoma = test system: MALME-3M melanoma
MOLT-4 leukemia = test system: MOLT-4 leukemia
NCI-H226 lung = test system: NCI-H226 lung
NCI-H23 lung = test system: NCI-H23 lung
NCI-H460 lung = test system: NCI-H460 lung
NCI-H522 lung = test system: NCI-H522 lung
OVCAR-3 ovarian = test system: OVCAR-3 ovarian
OVCAR-4 ovarian = test system: OVCAR-4 ovarian
OVCAR-5 ovarian = test system: OVCAR-5 ovarian
OVCAR-8 ovarian = test system: OVCAR-8 ovarian
RPMI-8226 leukemia = test system: RPMI-8226 leukemia
RXF-631 renal = test system: RXF-631 renal
SF-295 CNS = test system: SF-295 CNS
SF-539 CNS = test system: SF-539 CNS
SK-MEL-2 melanoma = test system: SK-MEL-2 melanoma
SK-MEL-28 melanoma = test system: SK-MEL-28 melanoma
SK-MEL-5 melanoma = test system: SK-MEL-5 melanoma
SK-OV-3 ovarian = test system: SK-OV-3 ovarian
SN12C renal = test system: SN12C renal
SNB-19 CNS = test system: SNB-19 CNS
SNB-75 CNS = test system: SNB-75 CNS
SNB-78 CNS = test system: SNB-78 CNS
SR leukemia = test system: SR leukemia
SW-620 colon = test system: SW-620 colon
TK-10 renal = test system: TK-10 renal
U251 CNS = test system: U251 CNS
UACC-257 melanoma = test system: UACC-257 melanoma
UACC-62 melanoma = test system: UACC-62 melanoma
UO-31 renal = test system: UO-31 renal
XF 498 CNS = test system: XF 498 CNS
A498 renal = test system: A498 renal
RXF 393 renal = test system: RXF 393 renal
SF-268 CNS = test system: SF-268 CNS

Structure (SMILES): Cc1cccc(-c2cc(=O)c3cc(C)c(C)c(C(=O)O)c3o2)c1
- TGI (786-0 renal): > 100 µM
- TGI (A549 NSCLC): > 100 µM
- TGI (ACHN renal): > 100 µM
- TGI (CAKI-1 renal): > 100 µM
- TGI (CCRF-CEM leukemia): > 100 µM
- TGI (COLO 205 colon): > 100 µM
- TGI (DLD-1 colon): > 100 µM
- TGI (DMS 114 small cell lung): > 100 µM
- TGI (DMS 273 small cell lung): > 100 µM
- TGI (EKVX NSCLC): > 100 µM
- TGI (HCC-2998 colon): > 100 µM
- TGI (HCT-116 colon): > 100 µM
- TGI (HCT-15 colon): > 100 µM
- TGI (HL-60(TB) leukemia): > 100 µM
- TGI (HOP-18 NSCLC): > 100 µM
- TGI (HOP-62 NSCLC): > 100 µM
- TGI (HOP-92 NSCLC): > 100 µM
- TGI (HT29 colon): > 100 µM
- TGI (IGROV1 ovarian): > 100 µM
- TGI (K-562 leukemia): > 100 µM
- TGI (KM12 colon): > 100 µM
- TGI (KM20L2 colon): > 100 µM
- TGI (LOX IMVI melanoma): > 100 µM
- TGI (LXFL 529 NSCLC): > 100 µM
- TGI (M14 melanoma): > 100 µM
- TGI (M19-MEL melanoma): > 100 µM
- TGI (MALME-3M melanoma): > 100 µM
- TGI (MOLT-4 leukemia): > 100 µM
- TGI (NCI-H226 lung): > 100 µM
- TGI (NCI-H23 lung): > 100 µM
- TGI (NCI-H460 lung): > 100 µM
- TGI (NCI-H522 lung): > 100 µM
- TGI (OVCAR-3 ovarian): > 100 µM
- TGI (OVCAR-4 ovarian): > 100 µM
- TGI (OVCAR-5 ovarian): > 100 µM
- TGI (OVCAR-8 ovarian): > 100 µM
- TGI (RPMI-8226 leukemia): > 100 µM
- TGI (RXF-631 renal): > 100 µM
- TGI (SF-295 CNS): > 100 µM
- TGI (SF-539 CNS): > 100 µM
- TGI (SK-MEL-2 melanoma): > 100 µM
- TGI (SK-MEL-28 melanoma): > 100 µM
- TGI (SK-MEL-5 melanoma): > 100 µM
- TGI (SK-OV-3 ovarian): > 100 µM
- TGI (SN12C renal): > 100 µM
- TGI (SNB-19 CNS): > 100 µM
- TGI (SNB-75 CNS): > 100 µM
- TGI (SNB-78 CNS): > 100 µM
- TGI (SR leukemia): > 100 µM
- TGI (SW-620 colon): > 100 µM
- TGI (TK-10 renal): > 100 µM
- TGI (U251 CNS): > 100 µM
- TGI (UACC-257 melanoma): > 100 µM
- TGI (UACC-62 melanoma): > 100 µM
- TGI (UO-31 renal): > 100 µM
- TGI (XF 498 CNS): > 100 µM

Structure (SMILES): Cc1cc(NS(=O)(=O)c2ccc(NC(=O)c3ccc(Cl)c4c(Nc5ccc(S(N)(=O)=O)cc5)c5ccccc5nc34)cc2)no1
- TGI (786-0 renal): 34.8 µM
- TGI (A498 renal): 49.9 µM
- TGI (A549 NSCLC): > 100 µM
- TGI (ACHN renal): 73.8 µM
- TGI (CAKI-1 renal): 40.5 µM
- TGI (COLO 205 colon): 34.3 µM
- TGI (DLD-1 colon): 52.4 µM
- TGI (DMS 114 small cell lung): 39.7 µM
- TGI (DMS 273 small cell lung): 47.4 µM
- TGI (EKVX NSCLC): 89.1 µM
- TGI (HCC-2998 colon): 33.2 µM
- TGI (HCT-116 colon): 30.8 µM
- TGI (HCT-15 colon): > 100 µM
- TGI (HL-60(TB) leukemia): 65.6 µM
- TGI (HOP-18 NSCLC): 83 µM
- TGI (HOP-62 NSCLC): 41.1 µM
- TGI (HOP-92 NSCLC): 39.2 µM
- TGI (HT29 colon): 44.7 µM
- TGI (IGROV1 ovarian): 44.2 µM
- TGI (K-562 leukemia): > 100 µM
- TGI (KM12 colon): 37.8 µM
- TGI (KM20L2 colon): 56.6 µM
- TGI (LOX IMVI melanoma): 29.7 µM
- TGI (LXFL 529 NSCLC): 31.4 µM
- TGI (M14 melanoma): 65.7 µM
- TGI (M19-MEL melanoma): 38.4 µM
- TGI (MALME-3M melanoma): 29.3 µM
- TGI (MOLT-4 leukemia): 56.6 µM
- TGI (NCI-H226 lung): 46 µM
- TGI (NCI-H23 lung): 49.3 µM
- TGI (NCI-H460 lung): 83.1 µM
- TGI (NCI-H522 lung): 23.7 µM
- TGI (OVCAR-3 ovarian): 37.7 µM
- TGI (OVCAR-4 ovarian): 47 µM
- TGI (OVCAR-5 ovarian): 56.7 µM
- TGI (OVCAR-8 ovarian): 36.6 µM
- TGI (RXF 393 renal): 31.3 µM
- TGI (RXF-631 renal): 50.2 µM
- TGI (SF-268 CNS): 40.8 µM
- TGI (SF-295 CNS): 70 µM
- TGI (SF-539 CNS): 39.2 µM
- TGI (SK-MEL-28 melanoma): 42.3 µM
- TGI (SK-MEL-5 melanoma): 33.9 µM
- TGI (SK-OV-3 ovarian): 59.2 µM
- TGI (SN12C renal): 58.6 µM
- TGI (SNB-19 CNS): 30.2 µM
- TGI (SNB-75 CNS): 42.6 µM
- TGI (SNB-78 CNS): > 100 µM
- TGI (SR leukemia): 56.9 µM
- TGI (SW-620 colon): 38.9 µM
- TGI (TK-10 renal): 86.2 µM
- TGI (U251 CNS): 27 µM
- TGI (UACC-257 melanoma): 50.9 µM
- TGI (UACC-62 melanoma): 25.2 µM
- TGI (UO-31 renal): 69.8 µM
- TGI (XF 498 CNS): 36 µM

Structure (SMILES): COc1cc2c3c(c1OC)-c1ccccc1C(C(O)c1ccccc1)C3N(C)CC2 (stereo not drawn)
- TGI (786-0 renal): > 100 µM
- TGI (A549 NSCLC): > 100 µM
- TGI (ACHN renal): > 100 µM
- TGI (CCRF-CEM leukemia): > 100 µM
- TGI (COLO 205 colon): 29.6 µM
- TGI (DLD-1 colon): 66.1 µM
- TGI (DMS 114 small cell lung): 43.9 µM
- TGI (DMS 273 small cell lung): 64.6 µM
- TGI (EKVX NSCLC): > 100 µM
- TGI (HCC-2998 colon): 33.7 µM
- TGI (HCT-116 colon): 39.2 µM
- TGI (HCT-15 colon): 76.9 µM
- TGI (HL-60(TB) leukemia): 43.6 µM
- TGI (HOP-18 NSCLC): > 100 µM
- TGI (HOP-62 NSCLC): 71.6 µM
- TGI (HOP-92 NSCLC): > 100 µM
- TGI (HT29 colon): 72 µM
- TGI (IGROV1 ovarian): 80.6 µM
- TGI (K-562 leukemia): 76.4 µM
- TGI (KM12 colon): 72.4 µM
- TGI (KM20L2 colon): 48.8 µM
- TGI (LOX IMVI melanoma): > 100 µM
- TGI (LXFL 529 NSCLC): > 100 µM
- TGI (M14 melanoma): 35.6 µM
- TGI (M19-MEL melanoma): > 100 µM
- TGI (MALME-3M melanoma): 35 µM
- TGI (MOLT-4 leukemia): 89 µM
- TGI (NCI-H226 lung): 72.8 µM
- TGI (NCI-H23 lung): > 100 µM
- TGI (NCI-H460 lung): 90 µM
- TGI (NCI-H522 lung): 35.9 µM
- TGI (OVCAR-3 ovarian): > 100 µM
- TGI (OVCAR-5 ovarian): > 100 µM
- TGI (OVCAR-8 ovarian): > 100 µM
- TGI (RPMI-8226 leukemia): 82.7 µM
- TGI (RXF 393 renal): 29.1 µM
- TGI (RXF-631 renal): 65.8 µM
- TGI (SF-268 CNS): > 100 µM
- TGI (SF-295 CNS): > 100 µM
- TGI (SF-539 CNS): 42.3 µM
- TGI (SK-MEL-2 melanoma): 88.2 µM
- TGI (SK-MEL-28 melanoma): 41.6 µM
- TGI (SK-MEL-5 melanoma): 28 µM
- TGI (SK-OV-3 ovarian): > 100 µM
- TGI (SN12C renal): 99.2 µM
- TGI (SNB-19 CNS): > 100 µM
- TGI (SNB-75 CNS): > 100 µM
- TGI (SNB-78 CNS): > 100 µM
- TGI (SR leukemia): 47 µM
- TGI (SW-620 colon): > 100 µM
- TGI (TK-10 renal): > 100 µM
- TGI (U251 CNS): > 100 µM
- TGI (UACC-257 melanoma): 40.6 µM
- TGI (UACC-62 melanoma): > 100 µM
- TGI (UO-31 renal): 68.3 µM
- TGI (XF 498 CNS): 52.3 µM
